Test results taken from patent publication US9422233B2 (priority 2011, dated 2016).

Key:
[1] = molecular target: MMP-9 (Homo sapiens, UniProt P14780); assay: biochemical
[2] = molecular target: T1, human recombinant FAAH (Homo sapiens, UniProt O00519); assay: biochemical
T1 construct: purchased Cayman Chemical (Ann Arbor, Mich.)
T1 sequence (O00519 1-579): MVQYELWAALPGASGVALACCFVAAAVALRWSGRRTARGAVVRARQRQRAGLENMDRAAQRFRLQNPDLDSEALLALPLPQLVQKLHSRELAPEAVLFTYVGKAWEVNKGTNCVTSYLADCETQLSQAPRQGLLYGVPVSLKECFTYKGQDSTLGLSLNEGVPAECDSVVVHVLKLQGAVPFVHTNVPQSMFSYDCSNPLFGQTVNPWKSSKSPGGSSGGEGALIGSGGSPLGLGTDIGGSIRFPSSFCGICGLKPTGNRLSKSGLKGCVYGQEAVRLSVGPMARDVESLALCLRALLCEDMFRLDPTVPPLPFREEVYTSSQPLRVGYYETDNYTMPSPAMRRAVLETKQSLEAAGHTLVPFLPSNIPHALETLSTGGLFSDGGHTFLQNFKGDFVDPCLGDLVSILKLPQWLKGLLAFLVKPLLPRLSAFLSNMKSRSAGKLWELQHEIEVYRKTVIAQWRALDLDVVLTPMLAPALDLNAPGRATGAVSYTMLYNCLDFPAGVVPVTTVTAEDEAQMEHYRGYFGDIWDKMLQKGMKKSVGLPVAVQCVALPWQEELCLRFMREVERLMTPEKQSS

[3] = system: rabbit corneas; assay type: cell-based

Sequence of MMP-9 (P14780 94-707, species assumed): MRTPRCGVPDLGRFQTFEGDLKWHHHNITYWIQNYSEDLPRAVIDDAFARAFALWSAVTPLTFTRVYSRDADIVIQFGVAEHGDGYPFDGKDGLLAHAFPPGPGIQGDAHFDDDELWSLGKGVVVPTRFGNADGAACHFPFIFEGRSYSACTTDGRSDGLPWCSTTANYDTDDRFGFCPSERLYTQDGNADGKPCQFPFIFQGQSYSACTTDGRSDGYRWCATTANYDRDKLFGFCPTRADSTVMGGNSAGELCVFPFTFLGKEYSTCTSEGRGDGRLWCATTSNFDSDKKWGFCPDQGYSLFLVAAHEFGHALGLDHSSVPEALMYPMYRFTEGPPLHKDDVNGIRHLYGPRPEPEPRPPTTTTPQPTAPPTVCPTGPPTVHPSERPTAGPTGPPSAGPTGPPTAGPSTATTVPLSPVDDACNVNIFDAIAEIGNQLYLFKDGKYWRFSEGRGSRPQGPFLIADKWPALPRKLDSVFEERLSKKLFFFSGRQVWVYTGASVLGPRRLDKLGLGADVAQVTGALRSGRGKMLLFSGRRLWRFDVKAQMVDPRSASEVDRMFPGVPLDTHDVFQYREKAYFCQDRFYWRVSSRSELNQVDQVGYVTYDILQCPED

With CCCCCCCCCCCCCCCCOC(=O)N(O)Cc1ccc(O)c(OC)c1 [Compound 4a, Hexadecyl-N-hydroxy(4-hydroxy-3-methoxybenzyl)carbamate] as the compound, how does the IC50 [1] read?
The IC50 was 120 µM.

With CCCCCCCCCCCCOC(=O)N(O)Cc1ccc(O)c(OC)c1 [Compound 4b, Dodecyl-N-hydroxy(4-hydroxy-3-methoxybenzyl)carbamate] as the compound, how does the IC50 [2] read?
The IC50 was 67 µM.

CCCCCCCCOC(=O)N(O)Cc1ccc(O)c(OC)c1 [Compound 4c, Octyl-N-hydroxy(4-hydroxy-3-methoxybenzyl)carbamate] was tested. Which IC50 [2] did it give?
Its IC50 is 73 µM.

With COc1cc(CN(O)C(=O)Oc2ccccc2)ccc1O [Compound 4g, Phenyl-N-hydroxy(4-hydroxy-3-methoxybenzyl)carbamate] as the compound, how does the IC50 [2] read?
Its IC50 is 10 µM.

What does the source list for CCCCCCCC/C=C\CCCCCCCC(=O)N(O)Cc1ccc(O)c(OC)c1 [Compound 5a, (9Z)—N-Hydroxy-N-[(4-hydroxy-3-methoxyphenyl)methyl]-9-Octadecenamide]?
IC50 [2]: 71 µM; basement membrane attached post-treatment [3]: 70%; epithelial-stromal separation (detachment) [3]: 30%

For CCCCCCCCC(CCCCCC)C(=O)N(O)Cc1ccc(O)c(OC)c1 (stereo not drawn) [Compound 5c, 2-hexyl-N-hydroxy-N-(4-hydroxy-3-methoxybenzyl)decanamide], which IC50 [1] is on record?
The IC50 was 99 µM.

CCCCCCCN(O)C(=O)Cc1ccc(O)c(OC)c1 [Compound 10a, N-heptyl-N-hydroxy-2-(4-hydroxy-3-methoxyphenyl)acetamide] was tested. Which IC50 [2] did it give?
The IC50 was 192 µM.

Which IC50 [1] does the source give for CCCCCCCCN(O)C(=O)Cc1ccc(O)c(OC)c1 [Compound 10b, N-octyl-N-hydroxy-2-(4-hydroxy-3-methoxyphenyl)acetamide] here?
Its IC50 is 68 µM.

What about the “basement membrane attached post-treatment” value [3] of the same compound?
The value was 85%.

What about the “epithelial-stromal separation (detachment)” value [3] of the same compound?
Its value is 15%.
